These compounds were tested on compound-treated mice (assay: Neuropharmacological assay (SmartCube): behavioral activity signature and minimal effective dose). Details: Mus musculus, ip, MED = dose having 50% or more total activity, read-out: Potency: minimal effective dose (MED).
Format: in vivo
Method in brief: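 Mice dosed i.p. 15 min before test, compound in N-methyl-2-pyrrolidone/PEG/propylene glycol, 3 doses; video-captured behavior matched to reference-drug signatures, giving per-class probabilities at most efficacious dose. MED from doses typically 0.3–30 mpk, defined as lowest dose with ≥50% total activity.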

Q: With Cc1ccc(Cl)c2c1C(N)COC2.Cl (stereo not drawn) [Example 48, 8-Chloro-5-methylisochroman-4-amine hydrochloride] as the compound, how does the minimal effective dose read?
A: < 3 mg/kg

Q: How did the minimal effective dose turn out when Cc1cc(Cl)c2c(c1)C(N)COC2.Cl (stereo not drawn) [Example 49, 8-Chloro-6-methylisochroman-4-amine hydrochloride] was run?
A: 3 to 10 mg/kg

Q: Cl.NC1COCc2c1ccc1ccccc21 (stereo not drawn) [Example 50, 3,4-Dihydro-1H-benzo[h]isochromen-4-amine hydrochloride] was tested. Which minimal effective dose did it give?
A: 10 to 30 mg/kg

Q: How did the minimal effective dose turn out when Cl.NC1COCc2ccc3c(c21)C1CCC3C1 (stereo not drawn) [Example 51, 2,4,7,8,9,10-Hexahydro-1H-7,10-methanobenzo[f]isochromen-1-amine hydrochloride] was run?
A: 3 to 10 mg/kg

Q: With Cl.NC1COCc2ccc3c(c21)CCCO3 (stereo not drawn) [Example 52, 1,2,4,8,9,10-Hexahydropyrano[4,3-f]chromen-1-amine hydrochloride] as the compound, how does the minimal effective dose read?
A: 3 to 10 mg/kg

Q: With CCc1cccc2c1C(N)COC2.Cl (stereo not drawn) [Example 53, 5-Ethylisochroman-4-amine hydrochloride] as the compound, how does the minimal effective dose read?
A: 3 to 10 mg/kg

Q: Which minimal effective dose does the source give for CNC1COCc2ccccc21.Cl (stereo not drawn) [Example 54, N-Methylisochroman-4-amine hydrochloride] here?
A: 10 to 30 mg/kg

Q: For Cc1ccc2c(c1C)C(NC(C)C)COC2.Cl (stereo not drawn) [Example 55], which minimal effective dose is on record?
A: 3 to 10 mg/kg

Q: Cc1ccc2c(c1C)C(NCCO)COC2.Cl (stereo not drawn) [Example 56] was tested. Which minimal effective dose did it give?
A: 10 to 30 mg/kg

Q: CNC1COCc2ccc(C)c(C)c21.Cl (stereo not drawn) [Example 57, N,5,6-Trimethylisochroman-4-amine hydrochloride] was tested. Which minimal effective dose did it give?
A: 3 to 10 mg/kg

Q: With CCNC1COCc2ccc(C)c(C)c21.Cl (stereo not drawn) [Example 58] as the compound, how does the minimal effective dose read?
A: 3 to 10 mg/kg

Q: CNC1CCOCc2ccc(C)cc21.Cl (stereo not drawn) [Example 59] was tested. Which minimal effective dose did it give?
A: 3 to 10 mg/kg

Same assay, conditions: i.p. 15 min before test, most efficacious dose(s)

Q: For Cc1ccc(Cl)c2c1C(N)COC2.Cl (stereo not drawn) [Example 48, 8-Chloro-5-methylisochroman-4-amine hydrochloride], which “AD: ADHD (probability of activity signature)” value (from here on “AD: ADHD”) is on record?
A: + (LOQ ≤ + <5%)

Q: What about the “AG: analgesic (probability of activity signature)” value (shortened to “AG: analgesic”) of the same compound?
A: ++ (5% ≤ ++ <25%)

Q: And the “AX: anxiolytic (probability of activity signature)” value (“AX: anxiolytic” for short)?
A: +++ (25% ≤ +++ <50%)

Q: And the “CE: cognitive enhancer (probability of activity signature)” value (“CE: cognitive enhancer” for short)?
A: +++ (25% ≤ +++ <50%)

Q: What about the “DP: anti-depressant (probability of activity signature)” value (“DP: anti-depressant” for short) of the same compound?
A: + (LOQ ≤ + <5%)

Q: And the “MS: mood stabilizer (probability of activity signature)” value (from here on “MS: mood stabilizer”)?
A: + (LOQ ≤ + <5%)

Q: And the “PS: anti-psychotic (probability of activity signature)” value (from here on “PS: anti-psychotic”)?
A: ++ (5% ≤ ++ <25%)

Q: And the “SD: sedative hypnotic (probability of activity signature)” value (“SD: sedative hypnotic” for short)?
A: ++ (5% ≤ ++ <25%)

Q: And the “UN: uncharacterized CNS activity (probability of activity signature)” value (“UN: uncharacterized CNS activity” below)?
A: ++ (5% ≤ ++ <25%)

Q: What does the source list for Cc1cc(Cl)c2c(c1)C(N)COC2.Cl (stereo not drawn) [Example 49, 8-Chloro-6-methylisochroman-4-amine hydrochloride]?
A: AD: ADHD (probability of activity signature): + (LOQ ≤ + <5%); AG: analgesic (probability of activity signature): ++ (5% ≤ ++ <25%); AX: anxiolytic (probability of activity signature): ++ (5% ≤ ++ <25%); CE: cognitive enhancer (probability of activity signature): ++ (5% ≤ ++ <25%); DP: anti-depressant (probability of activity signature): ++ (5% ≤ ++ <25%); MS: mood stabilizer (probability of activity signature): + (LOQ ≤ + <5%); PS: anti-psychotic (probability of activity signature): ++ (5% ≤ ++ <25%); SD: sedative hypnotic (probability of activity signature): ++ (5% ≤ ++ <25%); UN: uncharacterized CNS activity (probability of activity signature): ++++ (50% ≤ ++++)

Q: What does the source list for Cl.NC1COCc2c1ccc1ccccc21 (stereo not drawn) [Example 50, 3,4-Dihydro-1H-benzo[h]isochromen-4-amine hydrochloride]?
A: AD: ADHD (probability of activity signature): + (LOQ ≤ + <5%); AG: analgesic (probability of activity signature): ++ (5% ≤ ++ <25%); AX: anxiolytic (probability of activity signature): ++ (5% ≤ ++ <25%); CE: cognitive enhancer (probability of activity signature): ++ (5% ≤ ++ <25%); DP: anti-depressant (probability of activity signature): +++ (25% ≤ +++ <50%); MS: mood stabilizer (probability of activity signature): + (LOQ ≤ + <5%); PS: anti-psychotic (probability of activity signature): ++ (5% ≤ ++ <25%); SD: sedative hypnotic (probability of activity signature): + (LOQ ≤ + <5%); UN: uncharacterized CNS activity (probability of activity signature): ++ (5% ≤ ++ <25%)

Q: Which results are given for Cl.NC1COCc2ccc3c(c21)C1CCC3C1 (stereo not drawn) [Example 51, 2,4,7,8,9,10-Hexahydro-1H-7,10-methanobenzo[f]isochromen-1-amine hydrochloride]?
A: AD: ADHD (probability of activity signature): + (LOQ ≤ + <5%); AG: analgesic (probability of activity signature): ++ (5% ≤ ++ <25%); CE: cognitive enhancer (probability of activity signature): ++ (5% ≤ ++ <25%); MS: mood stabilizer (probability of activity signature): + (LOQ ≤ + <5%)

Q: Which results are given for Cl.NC1COCc2ccc3c(c21)CCCO3 (stereo not drawn) [Example 52, 1,2,4,8,9,10-Hexahydropyrano[4,3-f]chromen-1-amine hydrochloride]?
A: AD: ADHD (probability of activity signature): + (LOQ ≤ + <5%); AG: analgesic (probability of activity signature): ++ (5% ≤ ++ <25%); AX: anxiolytic (probability of activity signature): +++ (25% ≤ +++ <50%); CE: cognitive enhancer (probability of activity signature): ++ (5% ≤ ++ <25%); DP: anti-depressant (probability of activity signature): ++ (5% ≤ ++ <25%); MS: mood stabilizer (probability of activity signature): + (LOQ ≤ + <5%); PS: anti-psychotic (probability of activity signature): ++ (5% ≤ ++ <25%); SD: sedative hypnotic (probability of activity signature): ++ (5% ≤ ++ <25%); UN: uncharacterized CNS activity (probability of activity signature): + (LOQ ≤ + <5%)

Q: What does the source list for CCc1cccc2c1C(N)COC2.Cl (stereo not drawn) [Example 53, 5-Ethylisochroman-4-amine hydrochloride]?
A: AD: ADHD (probability of activity signature): + (LOQ ≤ + <5%); AG: analgesic (probability of activity signature): ++ (5% ≤ ++ <25%); AX: anxiolytic (probability of activity signature): ++ (5% ≤ ++ <25%); CE: cognitive enhancer (probability of activity signature): ++ (5% ≤ ++ <25%); DP: anti-depressant (probability of activity signature): ++ (5% ≤ ++ <25%); MS: mood stabilizer (probability of activity signature): + (LOQ ≤ + <5%); PS: anti-psychotic (probability of activity signature): ++ (5% ≤ ++ <25%); SD: sedative hypnotic (probability of activity signature): ++ (5% ≤ ++ <25%); UN: uncharacterized CNS activity (probability of activity signature): ++++ (50% ≤ ++++)

Q: How did the “AD: ADHD” value turn out when CNC1COCc2ccccc21.Cl (stereo not drawn) [Example 54, N-Methylisochroman-4-amine hydrochloride] was run?
A: + (LOQ ≤ + <5%)

Q: What about the “AG: analgesic” value of the same compound?
A: ++ (5% ≤ ++ <25%)

Q: And the “AX: anxiolytic” value?
A: ++ (5% ≤ ++ <25%)

Q: What about the “CE: cognitive enhancer” value of the same compound?
A: + (LOQ ≤ + <5%)

Q: And the “DP: anti-depressant” value?
A: ++ (5% ≤ ++ <25%)

Q: And the “MS: mood stabilizer” value?
A: + (LOQ ≤ + <5%)

Q: What about the “PS: anti-psychotic” value of the same compound?
A: ++ (5% ≤ ++ <25%)

Q: And the “SD: sedative hypnotic” value?
A: + (LOQ ≤ + <5%)

Q: What about the “UN: uncharacterized CNS activity” value of the same compound?
A: +++ (25% ≤ +++ <50%)

Q: What does the source list for Cc1ccc2c(c1C)C(NC(C)C)COC2.Cl (stereo not drawn) [Example 55]?
A: AD: ADHD (probability of activity signature): + (LOQ ≤ + <5%); AG: analgesic (probability of activity signature): ++ (5% ≤ ++ <25%); AX: anxiolytic (probability of activity signature): ++ (5% ≤ ++ <25%); CE: cognitive enhancer (probability of activity signature): ++ (5% ≤ ++ <25%); DP: anti-depressant (probability of activity signature): + (LOQ ≤ + <5%); MS: mood stabilizer (probability of activity signature): + (LOQ ≤ + <5%); PS: anti-psychotic (probability of activity signature): ++ (5% ≤ ++ <25%); SD: sedative hypnotic (probability of activity signature): + (LOQ ≤ + <5%); UN: uncharacterized CNS activity (probability of activity signature): +++ (25% ≤ +++ <50%)

Q: Which “AD: ADHD” value does the source give for Cc1ccc2c(c1C)C(NCCO)COC2.Cl (stereo not drawn) [Example 56] here?
A: + (LOQ ≤ + <5%)

Q: And the “AG: analgesic” value?
A: +++ (25% ≤ +++ <50%)

Q: And the “AX: anxiolytic” value?
A: ++ (5% ≤ ++ <25%)

Q: And the “CE: cognitive enhancer” value?
A: ++ (5% ≤ ++ <25%)

Q: What about the “DP: anti-depressant” value of the same compound?
A: ++ (5% ≤ ++ <25%)

Q: What about the “MS: mood stabilizer” value of the same compound?
A: + (LOQ ≤ + <5%)

Q: And the “PS: anti-psychotic” value?
A: + (LOQ ≤ + <5%)

Q: What about the “SD: sedative hypnotic” value of the same compound?
A: + (LOQ ≤ + <5%)

Q: What about the “UN: uncharacterized CNS activity” value of the same compound?
A: + (LOQ ≤ + <5%)

Q: How did the “AD: ADHD” value turn out when CNC1COCc2ccc(C)c(C)c21.Cl (stereo not drawn) [Example 57, N,5,6-Trimethylisochroman-4-amine hydrochloride] was run?
A: + (LOQ ≤ + <5%)

Q: What about the “AG: analgesic” value of the same compound?
A: ++ (5% ≤ ++ <25%)

Q: And the “AX: anxiolytic” value?
A: ++ (5% ≤ ++ <25%)

Q: What about the “CE: cognitive enhancer” value of the same compound?
A: +++ (25% ≤ +++ <50%)

Q: What about the “DP: anti-depressant” value of the same compound?
A: ++ (5% ≤ ++ <25%)

Q: What about the “MS: mood stabilizer” value of the same compound?
A: + (LOQ ≤ + <5%)

Q: And the “PS: anti-psychotic” value?
A: ++ (5% ≤ ++ <25%)

Q: What about the “SD: sedative hypnotic” value of the same compound?
A: ++ (5% ≤ ++ <25%)

Q: And the “UN: uncharacterized CNS activity” value?
A: +++ (25% ≤ +++ <50%)

Q: Which results are given for CCNC1COCc2ccc(C)c(C)c21.Cl (stereo not drawn) [Example 58]?
A: AD: ADHD (probability of activity signature): + (LOQ ≤ + <5%); AG: analgesic (probability of activity signature): ++ (5% ≤ ++ <25%); AX: anxiolytic (probability of activity signature): ++ (5% ≤ ++ <25%); CE: cognitive enhancer (probability of activity signature): ++ (5% ≤ ++ <25%); DP: anti-depressant (probability of activity signature): ++ (5% ≤ ++ <25%); MS: mood stabilizer (probability of activity signature): + (LOQ ≤ + <5%); PS: anti-psychotic (probability of activity signature): ++ (5% ≤ ++ <25%); SD: sedative hypnotic (probability of activity signature): ++ (5% ≤ ++ <25%); UN: uncharacterized CNS activity (probability of activity signature): +++ (25% ≤ +++ <50%)

Q: How did the “AD: ADHD” value turn out when CNC1CCOCc2ccc(C)cc21.Cl (stereo not drawn) [Example 59] was run?
A: + (LOQ ≤ + <5%)

Q: And the “AG: analgesic” value?
A: +++ (25% ≤ +++ <50%)

Q: What about the “AX: anxiolytic” value of the same compound?
A: ++ (5% ≤ ++ <25%)

Q: And the “CE: cognitive enhancer” value?
A: ++ (5% ≤ ++ <25%)

Q: And the “DP: anti-depressant” value?
A: ++ (5% ≤ ++ <25%)

Q: And the “MS: mood stabilizer” value?
A: + (LOQ ≤ + <5%)

Q: What about the “PS: anti-psychotic” value of the same compound?
A: ++ (5% ≤ ++ <25%)

Q: What about the “SD: sedative hypnotic” value of the same compound?
A: ++ (5% ≤ ++ <25%)

Q: What about the “UN: uncharacterized CNS activity” value of the same compound?
A: +++ (25% ≤ +++ <50%)

Same assay, conditions: i.p. 15 min before test, most efficacious dose(s), hydrochloride

Q: What does the source list for Cl.NC1COCc2ccc3c(c21)C1CCC3C1 (stereo not drawn) [Example 51, 2,4,7,8,9,10-Hexahydro-1H-7,10-methanobenzo[f]isochromen-1-amine hydrochloride]?
A: AX: anxiolytic (probability of activity signature): ++ (5% ≤ ++ <25%); DP: anti-depressant (probability of activity signature): ++ (5% ≤ ++ <25%); PS: anti-psychotic (probability of activity signature): ++ (5% ≤ ++ <25%); SD: sedative hypnotic (probability of activity signature): + (LOQ ≤ + <5%); UN: uncharacterized CNS activity (probability of activity signature): ++++ (50% ≤ ++++)
